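Where inhibition never reached the appropriate level, the endpoint shown equals the highest concentration tested. Otherwise, values were interpolated linearly from a five-concentration, 48-hour dose response in 96-well plates. Here, GI50 denotes the concentration required for 50% inhibition of growth.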 Calls of active or inactive are those of the source. Cut-off read from the data, not from the text of the source: active = GI50 up to about 1.1 µM and inactive = higher.
Experiments:
Test in all cases: NCI anticancer screen, dose series, 48 h
[1] = tested on: 786-0
[2] = tested on: ACHN
[3] = tested on: M19-MEL
[4] = tested on: SN12C
[5] = tested on: A549
[6] = tested on: HT-29
[7] = tested on: NCI-H23
[8] = tested on: HOP-92
[9] = tested on: NCI-H522
[10] = tested on: U-251
[11] = tested on: SF-539
[12] = tested on: IGROV-1
[13] = tested on: SF-268
[14] = tested on: OVCAR-5
[15] = tested on: COLO 205
[16] = tested on: DLD-1
[17] = tested on: OVCAR-8
[18] = tested on: A498
[19] = tested on: KM-20L2
[20] = tested on: UO-31
[21] = tested on: NCI-H226
[22] = tested on: M14
[23] = tested on: HOP-62
[24] = tested on: HCC 2998
[25] = tested on: LXFL 529
[26] = tested on: LOX IMVI
[27] = tested on: SNB-19
[28] = tested on: SNB-78
[29] = tested on: SR
[30] = tested on: K562
[31] = tested on: DMS-114
[32] = tested on: HCT-116
[33] = tested on: SF-295
[34] = tested on: Malme-3M
[35] = tested on: OVCAR-4
[36] = tested on: OVCAR-3
[37] = tested on: RXF 393
[38] = tested on: MOLT-4
[39] = tested on: SW-620
[40] = tested on: SK-OV-3
[41] = tested on: HCT-15
[42] = tested on: SK-MEL-28
[43] = tested on: SK-MEL-2
[44] = tested on: HL-60
[45] = tested on: UACC-62
[46] = tested on: NCI-H460
[47] = tested on: DMS-273
[48] = tested on: CAKI-1
[49] = tested on: CCRF-CEM
[50] = tested on: RPMI-8226
[51] = tested on: SK-MEL-5
[52] = tested on: SNB-75
[53] = tested on: EKVX
[54] = tested on: TK-10
[55] = tested on: UACC-257
[56] = tested on: KM12

Which GI50 [1] does the source give for CC(=O)N(N=O)c1ccc(N(N=O)C(C)=O)cc1 here?
Its GI50 is > 100 µM (inactive).

And the GI50 [2]?
The GI50 was > 100 µM (inactive).

And the GI50 [3]?
Its GI50 is > 100 µM (inactive).

And the GI50 [4]?
The GI50 was > 100 µM (inactive).

What about the GI50 [5] of the same compound?
Its GI50 is > 100 µM (inactive).

And the GI50 [6]?
Its GI50 is > 100 µM (inactive).

What about the GI50 [7] of the same compound?
The GI50 was > 100 µM (inactive).

And the GI50 [8]?
The GI50 was > 100 µM (inactive).

And the GI50 [9]?
The GI50 was > 100 µM (inactive).

What about the GI50 [10] of the same compound?
Its GI50 is > 100 µM (inactive).

What about the GI50 [11] of the same compound?
The GI50 was > 100 µM (inactive).

And the GI50 [12]?
The GI50 was > 100 µM (inactive).

What about the GI50 [13] of the same compound?
The GI50 was > 100 µM (inactive).

What about the GI50 [14] of the same compound?
The GI50 was > 100 µM (inactive).

What about the GI50 [15] of the same compound?
The GI50 was > 100 µM (inactive).

And the GI50 [16]?
Its GI50 is > 100 µM (inactive).

What about the GI50 [17] of the same compound?
The GI50 was > 100 µM (inactive).

And the GI50 [18]?
The GI50 was > 100 µM (inactive).

And the GI50 [19]?
Its GI50 is > 100 µM (inactive).

What about the GI50 [20] of the same compound?
The GI50 was > 100 µM (inactive).

What about the GI50 [21] of the same compound?
Its GI50 is > 100 µM (inactive).

And the GI50 [22]?
Its GI50 is > 100 µM (inactive).

What about the GI50 [23] of the same compound?
Its GI50 is > 100 µM (inactive).

And the GI50 [24]?
Its GI50 is > 100 µM (inactive).

And the GI50 [25]?
Its GI50 is > 100 µM (inactive).

What about the GI50 [26] of the same compound?
Its GI50 is > 100 µM (inactive).

What about the GI50 [27] of the same compound?
The GI50 was > 100 µM (inactive).

And the GI50 [28]?
Its GI50 is > 100 µM (inactive).

What about the GI50 [29] of the same compound?
The GI50 was > 100 µM (inactive).

And the GI50 [30]?
The GI50 was > 100 µM (inactive).

And the GI50 [31]?
Its GI50 is > 100 µM (inactive).

What about the GI50 [32] of the same compound?
Its GI50 is > 100 µM (inactive).

What about the GI50 [33] of the same compound?
Its GI50 is > 100 µM (inactive).

What about the GI50 [34] of the same compound?
Its GI50 is > 100 µM (inactive).

And the GI50 [35]?
Its GI50 is > 100 µM (inactive).

And the GI50 [36]?
The GI50 was > 100 µM (inactive).

What about the GI50 [37] of the same compound?
The GI50 was > 100 µM (inactive).

What about the GI50 [38] of the same compound?
The GI50 was > 100 µM (inactive).

And the GI50 [39]?
Its GI50 is > 100 µM (inactive).

What about the GI50 [40] of the same compound?
Its GI50 is > 100 µM (inactive).

And the GI50 [41]?
The GI50 was > 100 µM.

And the GI50 [42]?
The GI50 was > 100 µM (inactive).

What about the GI50 [43] of the same compound?
The GI50 was > 100 µM (inactive).

And the GI50 [44]?
The GI50 was > 100 µM (inactive).

What about the GI50 [45] of the same compound?
The GI50 was > 100 µM (inactive).

And the GI50 [46]?
The GI50 was > 100 µM (inactive).

And the GI50 [47]?
Its GI50 is > 100 µM (inactive).

And the GI50 [48]?
The GI50 was > 100 µM (inactive).

What about the GI50 [49] of the same compound?
Its GI50 is > 100 µM (inactive).

What about the GI50 [50] of the same compound?
The GI50 was > 100 µM (inactive).

What about the GI50 [51] of the same compound?
The GI50 was > 100 µM (inactive).

And the GI50 [52]?
Its GI50 is > 100 µM (inactive).

For COC1=CC(=O)OC(/C=C(C)/C=C/C2=C(C)CCCC2(C)C)C1 (centres undefined), which GI50 [1] is on record?
The GI50 was > 100 µM (inactive).

What about the GI50 [2] of the same compound?
Its GI50 is > 100 µM (inactive).

What about the GI50 [53] of the same compound?
The GI50 was > 100 µM (inactive).

And the GI50 [54]?
Its GI50 is > 100 µM (inactive).

What about the GI50 [3] of the same compound?
The GI50 was > 100 µM (inactive).

What about the GI50 [4] of the same compound?
Its GI50 is > 100 µM (inactive).

What about the GI50 [5] of the same compound?
The GI50 was > 100 µM (inactive).

What about the GI50 [6] of the same compound?
The GI50 was > 100 µM (inactive).

What about the GI50 [7] of the same compound?
Its GI50 is > 100 µM (inactive).

What about the GI50 [8] of the same compound?
Its GI50 is > 100 µM (inactive).

What about the GI50 [9] of the same compound?
Its GI50 is > 100 µM (inactive).

And the GI50 [10]?
Its GI50 is > 100 µM (inactive).

And the GI50 [11]?
Its GI50 is > 100 µM (inactive).

What about the GI50 [12] of the same compound?
The GI50 was > 100 µM (inactive).

And the GI50 [13]?
The GI50 was > 100 µM (inactive).

What about the GI50 [14] of the same compound?
The GI50 was > 100 µM (inactive).

And the GI50 [16]?
Its GI50 is > 100 µM (inactive).

What about the GI50 [17] of the same compound?
The GI50 was > 100 µM (inactive).

What about the GI50 [55] of the same compound?
Its GI50 is > 100 µM (inactive).

What about the GI50 [18] of the same compound?
The GI50 was > 100 µM (inactive).

What about the GI50 [19] of the same compound?
Its GI50 is 36 µM (inactive).

What about the GI50 [20] of the same compound?
The GI50 was > 100 µM (inactive).

What about the GI50 [21] of the same compound?
The GI50 was > 100 µM (inactive).

And the GI50 [22]?
Its GI50 is > 100 µM (inactive).

What about the GI50 [23] of the same compound?
The GI50 was > 100 µM (inactive).

And the GI50 [24]?
Its GI50 is > 100 µM (inactive).

And the GI50 [25]?
The GI50 was > 100 µM (inactive).

And the GI50 [27]?
Its GI50 is > 100 µM (inactive).

What about the GI50 [28] of the same compound?
The GI50 was > 100 µM (inactive).

What about the GI50 [29] of the same compound?
The GI50 was > 100 µM (inactive).

And the GI50 [30]?
Its GI50 is > 100 µM (inactive).

And the GI50 [31]?
Its GI50 is > 100 µM (inactive).

And the GI50 [32]?
The GI50 was > 100 µM (inactive).

And the GI50 [56]?
The GI50 was > 100 µM (inactive).

And the GI50 [33]?
The GI50 was > 100 µM (inactive).

And the GI50 [34]?
Its GI50 is > 100 µM (inactive).

And the GI50 [35]?
The GI50 was > 100 µM (inactive).

And the GI50 [36]?
Its GI50 is > 100 µM (inactive).

What about the GI50 [37] of the same compound?
The GI50 was > 100 µM (inactive).

And the GI50 [38]?
The GI50 was > 100 µM (inactive).

And the GI50 [39]?
The GI50 was > 100 µM (inactive).

What about the GI50 [40] of the same compound?
The GI50 was > 100 µM (inactive).

And the GI50 [42]?
The GI50 was > 100 µM (inactive).

What about the GI50 [43] of the same compound?
The GI50 was > 100 µM (inactive).

And the GI50 [44]?
Its GI50 is > 100 µM (inactive).

And the GI50 [45]?
Its GI50 is > 100 µM (inactive).

And the GI50 [46]?
Its GI50 is > 100 µM (inactive).

And the GI50 [47]?
The GI50 was > 100 µM (inactive).

And the GI50 [48]?
The GI50 was > 100 µM (inactive).

What about the GI50 [49] of the same compound?
Its GI50 is > 100 µM (inactive).

And the GI50 [51]?
The GI50 was > 100 µM (inactive).

And the GI50 [52]?
The GI50 was > 100 µM (inactive).
